Experimental data from US20190337924A1, “SUBSTITUTED HYDANTOIN AND THIOHYDANTOIN DERIVATIVES AS ANDROGEN RECEPTOR ANTAGONISTS” (Janssen Pharmaceutica NV, priority 2016, published 2019).
Where a name gives a salt, the structure may show the parent alone. Read-outs that look alike come from different tables or passages of the source.

Target: T1, F876L mutant Androgen Receptor (AR-F876L) (Homo sapiens, UniProt P10275, F877L)
T1 construct: expressed in transfected cells; host or cells: LNCaP
T1 sequence (P10275 1-920 F877L): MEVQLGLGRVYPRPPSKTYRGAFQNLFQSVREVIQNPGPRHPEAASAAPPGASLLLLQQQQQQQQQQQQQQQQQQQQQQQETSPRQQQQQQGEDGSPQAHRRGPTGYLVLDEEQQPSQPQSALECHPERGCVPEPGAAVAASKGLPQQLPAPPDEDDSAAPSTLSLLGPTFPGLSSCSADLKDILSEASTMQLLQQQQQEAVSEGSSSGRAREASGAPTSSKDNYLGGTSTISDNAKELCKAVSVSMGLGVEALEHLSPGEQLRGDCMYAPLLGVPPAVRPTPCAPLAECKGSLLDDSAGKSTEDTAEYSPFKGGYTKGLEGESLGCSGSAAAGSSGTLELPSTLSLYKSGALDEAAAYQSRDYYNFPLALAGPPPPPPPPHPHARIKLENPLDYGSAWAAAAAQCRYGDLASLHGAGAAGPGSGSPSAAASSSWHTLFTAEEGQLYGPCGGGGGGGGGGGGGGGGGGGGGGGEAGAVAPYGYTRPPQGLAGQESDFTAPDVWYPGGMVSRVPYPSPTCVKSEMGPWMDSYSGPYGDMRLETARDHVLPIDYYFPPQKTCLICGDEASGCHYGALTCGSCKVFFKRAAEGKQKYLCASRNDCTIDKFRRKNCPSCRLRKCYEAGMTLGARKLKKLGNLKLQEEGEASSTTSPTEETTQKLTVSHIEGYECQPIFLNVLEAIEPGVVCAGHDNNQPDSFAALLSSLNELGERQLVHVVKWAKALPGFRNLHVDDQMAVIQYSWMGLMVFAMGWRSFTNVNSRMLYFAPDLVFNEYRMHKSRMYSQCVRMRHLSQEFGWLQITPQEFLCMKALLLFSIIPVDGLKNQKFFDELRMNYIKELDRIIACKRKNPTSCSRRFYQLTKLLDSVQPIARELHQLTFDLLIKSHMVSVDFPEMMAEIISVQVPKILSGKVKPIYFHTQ
Assay: AR reporter assay, LNCaP-AR-F876L ANT (antagonist mode)
Assay type: cell-based
Settings: for Emax: read-out: LNCaP-AR-F876L ANT MAX % Inh
Excerpt: LNCaP AR (cs) and LNCaP F876L luciferase cell lines were generated by transduction of each cell line (description of cell line generation Joseph J D, Lu N, Qian J, Sensintaffar J, Shao G, Brigham D, Moon M, Maneval E C, Chen I, Darimont B, Hager J H. A clinically relevant androgen receptor mutation confers resistance to second-generation antiandrogens enzalutamide and ARN-509. Cancer Discov 2013; 3:1020-1029) with an Androgen Response Element Firefly Luciferase lentiviral construct at an MOI (multiplicity of infection) of 50 following the manufacturer's instructions (Qiagen). A stable pooled-population cell line was generated using puromycin (Life Technologies) selection at 1:10,000 v/v. The protocol below was used for both cell lines and for testing of the compounds of Formula (I) of the present invention.
LNCaP cells were grown to about 80% confluence, media removed and cells rinsed in Hank's balanced salt solution prior to separation from the plate with 0.05% Trypsin EDTA. Cells were lifted and trypsin negated in complete CSS (charcoal stripped serum) culture media. CSS was maintained on cells for 24 h prior to assay, at which time 5,000 cells/[…] were seeded in Greiner 384 well White/White Tissue Culture Treated Plates and incubated for a further 1-2 hours at 37° C., 5% CO2, prior to addition of 10 μL of 4× Test Compounds (compounds described herein) or Assay Controls (all diluted in complete media containing 10% css). A further 10 μL of 4× R-1881 Agonist Challenge (antagonist assay) or Buffer (agonist assay) was then added (all diluted in complete media containing 10% css). Agonist challenge was at 400 pM for WT assay and 600 pM for F876L assay. Plates containing cells and compounds herein were incubated for a further 20-24 hours at 37° C., 5% CO2 before addition of 40 μL/well of Steady-Glo Luciferase Assay System Reagent (Promega#E2520). After 1 h, plates were read for luminescence on a BMG Pherastar.
Agonist challenge: R-1881 (Metribolone)—Agonist
Antagonist control (low control): 5-(5-(4-((1-Methylpiperidin-4-yl)oxy)phenyl)-8-oxo-6-thioxo-5,7-diazaspiro[3.4]octan-7-yl)-3-(trifluoromethyl)picolinonitrile (WO 2011/103202, EXAMPLE 19, Compound 129, CAS #1332390-06-3).
(1−(Sample RLU−Ave Low Control RLU[10 μM Antagonist Control])/(Ave High Control RLU [400 pM R-1881]−Ave Low Control RLU[10 μM Antagonist Control]))*100.
EC/IC50 calculations were achieved utilizing calculated RLU data and data fitting macros. Data were fit using least-squares methods to the following formula: […]
As used herein: • pIC50 is defined as −Log10(IC50 expressed in [Molar]). • pEC50 is defined as −Log10(EC50 expressed in [Molar]). • MAX % Inh is defined as the maximum % inhibition of R1881 control response observed for a compound over the tested concentration range. • MAX % Stim is defined as the maximum % stimulation (agonist response) observed for a compound over the tested concentration range. • LNCaP-AR-wt ANT refers to the reporter assay using LNCaP cells stably transfected with the Androgen Response Element Firefly Luciferase lentiviral construct and wild-type Androgen Receptor (AR-wt) in Antagonist mode. • LNCaP-AR-wt AG refers to the reporter assay using LNCaP cells stably transfected with the Androgen Response Element Firefly Luciferase lentiviral construct and wild-type Androgen Receptor (AR-wt) in Agonist mode. • LNCaP-AR-F876L ANT refers to the reporter assay using LNCaP cells stably transfected with the Androgen Response Element Firefly Luciferase lentiviral construct and F876L mutant Androgen Receptor (AR-F876L) in Antagonist mode. • LNCaP-AR-F876L AG refers to the reporter assay using LNCaP cells stably transfected with the Androgen Response Element Firefly Luciferase lentiviral construct and F876L mutant Androgen Receptor (AR-F876L) in Agonist mode.

[1] = antagonist mode, 600 pM R-1881 challenge, luciferase reporter, -Log10(IC50 in Molar), read-out: LNCaP-AR-F876L ANT pIC50 (converted)

Compound	IC50 [nM]	Emax [%]	IC50 [1] [nM]
CC1(C)C(=O)N(c2ccc(C#N)c(C(F)(F)F)c2)C(=S)N1c1ccc(OC2CCNCC2)cc1 [Compound 1, 4-(4,4-Dimethyl-5-oxo-3-(4-(piperidin-4-yloxy)phenyl)-2-thioxoimidazolidin-1-yl)-2-(trifluoromethyl)benzonitrile]	41.7	102	–
CN1CCC(Oc2ccc(N3C(=S)N(c4ccc(C#N)c(C(F)(F)F)c4)C(=O)C3(C)C)cc2)CC1 [Compound 2, 4-(4,4-Dimethyl-3-(4-((1-methylpiperidin-4-yl)oxy)phenyl)-5-oxo-2-thioxoimidazolidin-1-yl)-2-(trifluoromethyl)benzonitrile hydrochloride]	69.2	101	–
CC1(C)C(=O)N(c2ccc(C#N)c(C(F)(F)F)c2)C(=S)N1c1ccc(OC2CCNCC2)nc1 [Compound 3, 4-(4,4-Dimethyl-5-oxo-3-(6-(piperidin-4-yloxy)pyridin-3-yl)-2-thioxoimidazolidin-1-yl)-2-(trifluoromethyl)benzonitrile hydrochloride]	40.7	102	–
CN1CCC(Oc2ccc(N3C(=S)N(c4ccc(C#N)c(C(F)(F)F)c4)C(=O)C3(C)C)cn2)CC1 [Compound 4, 4-(4,4-Dimethyl-3-(6-((1-methylpiperidin-4-yl)oxy)pyridin-3-yl)-5-oxo-2-thioxoimidazolidin-1-yl)-2-(trifluoromethyl)benzonitrile hydrochloride]	83.2	102	–
CC1(C)C(=O)N(c2ccc(C#N)c(C(F)(F)F)c2)C(=S)N1c1cnc(OC2CCNCC2)nc1 [Compound 5, 4-(4,4-Dimethyl-5-oxo-3-(2-(piperidin-4-yloxy)pyrimidin-5-yl)-2-thioxoimidazolidin-1-yl)-2-(trifluoromethyl)benzonitrile]	229	101	–
CN1CCC(Oc2ncc(N3C(=S)N(c4ccc(C#N)c(C(F)(F)F)c4)C(=O)C3(C)C)cn2)CC1 [Compound 6, 4-(4,4-Dimethyl-3-(2-((1-methylpiperidin-4-yl)oxy)pyrimidin-5-yl)-5-oxo-2-thioxoimidazolidin-1-yl)-2-(trifluoromethyl)benzonitrile]	–	101	135
CC1(C)C(=O)N(c2ccc(C#N)c(Cl)c2)C(=S)N1c1ccc(OC2CCNCC2)cc1 [Compound 7, 2-Chloro-4-(4,4-dimethyl-5-oxo-3-(4-(piperidin-4-yloxy)phenyl)-2-thioxoimidazolidin-1-yl)benzonitrile hydrochloride]	38	101	–
CN1CCC(Oc2ccc(N3C(=S)N(c4ccc(C#N)c(Cl)c4)C(=O)C3(C)C)cc2)CC1 [Compound 8, 2-Chloro-4-(4,4-dimethyl-3-(4-((1-methylpiperidin-4-yl)oxy)phenyl)-5-oxo-2-thioxoimidazolidin-1-yl)benzonitrile hydrochloride]	58.9	101	–
CC1(C)C(=O)N(c2ccc(C#N)c(Cl)c2)C(=S)N1c1ccc(OC2CCNCC2)nc1 [Compound 9, 2-Chloro-4-(4,4-dimethyl-5-oxo-3-(6-(piperidin-4-yloxy)pyridin-3-yl)-2-thioxoimidazolidin-1-yl)benzonitrile hydrochloride]	38.9	100	–
CN1CCC(Oc2ccc(N3C(=S)N(c4ccc(C#N)c(Cl)c4)C(=O)C3(C)C)cn2)CC1 [Compound 10, 2-Chloro-4-(4,4-dimethyl-3-(6-((1-methylpiperidin-4-yl)oxy)pyridin-3-yl)-5-oxo-2-thioxoimidazolidin-1-yl)benzonitrile hydrochloride]	85.1	101	–
N#Cc1ccc(N2C(=O)C3(CCC3)N(c3ccc(OC4CCNCC4)cc3)C2=S)cc1C(F)(F)F [Compound 11, 4-(8-Oxo-5-(4-(piperidin-4-yloxy)phenyl)-6-thioxo-5,7-diazaspiro[3.4]octan-7-yl)-2-(trifluoromethyl)benzonitrile]	107	102	–
CN1CCC(Oc2ccc(N3C(=S)N(c4ccc(C#N)c(C(F)(F)F)c4)C(=O)C34CCC4)cc2)CC1 [Compound 12, 4-(5-(4-((1-Methylpiperidin-4-yl)oxy)phenyl)-8-oxo-6-thioxo-5,7-diazaspiro[3.4]octan-7-yl)-2-(trifluoromethyl)benzonitrile]	166	101	–
N#Cc1ccc(N2C(=O)C3(CCC3)N(c3ccc(OC4CCNCC4)nc3)C2=S)cc1C(F)(F)F [Compound 13, 4-(8-Oxo-5-(6-(piperidin-4-yloxy)pyridin-3-yl)-6-thioxo-5,7-diazaspiro[3.4]octan-7-yl)-2-(trifluoromethyl)benzonitrile hydrochloride]	57.5	102	–
CN1CCC(Oc2ccc(N3C(=S)N(c4ccc(C#N)c(C(F)(F)F)c4)C(=O)C34CCC4)cn2)CC1 [Compound 14, 4-(5-(6-((1-Methylpiperidin-4-yl)oxy)pyridin-3-yl)-8-oxo-6-thioxo-5,7-diazaspiro[3.4]octan-7-yl)-2-(trifluoromethyl)benzonitrile]	57.5	101	–
N#Cc1ccc(N2C(=O)C3(CCC3)N(c3cnc(OC4CCNCC4)nc3)C2=S)cc1C(F)(F)F [Compound 15, 4-(8-Oxo-5-(2-(piperidin-4-yloxy)pyrimidin-5-yl)-6-thioxo-5,7-diazaspiro[3.4]octan-7-yl)-2-(trifluoromethyl)benzonitrile]	–	101	107
CN1CCC(Oc2ncc(N3C(=S)N(c4ccc(C#N)c(C(F)(F)F)c4)C(=O)C34CCC4)cn2)CC1 [Compound 16, 4-(5-(2-((1-Methylpiperidin-4-yl)oxy)pyrimidin-5-yl)-8-oxo-6-thioxo-5,7-diazaspiro[3.4]octan-7-yl)-2-(trifluoromethyl)benzonitrile]	–	101	166
Cc1cc(N2C(=O)C3(CCC3)N(c3ccc(OC4CCN(C)CC4)cc3)C2=S)ccc1C#N [Compound 17, 2-Methyl-4-(5-(4-((1-methylpiperidin-4-yl)oxy)phenyl)-8-oxo-6-thioxo-5,7-diazaspiro[3.4]octan-7-yl)benzonitrile]	–	101	129
